Measured values published in the NIST ThermoML archive (doi:10.1016/j.jct.2016.09.010).
Numbers after ± are expanded uncertainties.

Legend:
[1] = 100 kPa, Liquid; for speed of sound: Frequency=2 MHz, Linear variable-path acoustic interferometer; for mass density: Vibrating tube method
[2] = xn = mol fraction of the nth substance listed; conditions: 100 kPa, Liquid; for speed of sound: Frequency=2 MHz, Linear variable-path acoustic interferometer; for mass density: Vibrating tube method

CCNc1ccccc1 [N-ethylaminobenzene]
[1]
Conditions | mass density [kg/m3] | speed of sound [m/s]
303.15 K | 952.41 ± 2 | 1497 ± 1.7
308.15 K | 947.69 ± 2 | 1481 ± 1.7
313.15 K | 942.95 ± 2 | 1464 ± 1.7
318.15 K | 938.23 ± 2 | 1448 ± 1.6

CCOC(=O)C(C)O (stereo not drawn) [DL-ethyl lactate] + CCNc1ccccc1
[2], x1 = 1
Conditions | mass density [kg/m3] | speed of sound [m/s]
303.15 K | 1022.88 ± 2.2 | 1261.1 ± 2.5
308.15 K | 1017.39 ± 2.1 | 1243.8 ± 2.5
313.15 K | 1011.83 ± 2.1 | 1224.8 ± 2.5
318.15 K | 1006.31 ± 2.1 | 1206.9 ± 2.5

CCOC(=O)C(C)O (stereo not drawn) [DL-ethyl lactate] + CNc1ccccc1
[2], x1 = 1
Conditions | mass density [kg/m3] | speed of sound [m/s]
303.15 K | 1022.88 ± 2.2 | 1261.1 ± 2.5
308.15 K | 1017.39 ± 2.1 | 1243.8 ± 2.5
313.15 K | 1011.83 ± 2.1 | 1224.8 ± 2.5
318.15 K | 1006.31 ± 2.1 | 1206.9 ± 2.5

Nc1ccccc1 [aniline]
[1]
Conditions | mass density [kg/m3] | speed of sound [m/s]
303.15 K | 1012.81 ± 2 | 1614 ± 1.7
308.15 K | 1008.91 ± 2 | 1595 ± 1.7
313.15 K | 1004.59 ± 2 | 1574.4 ± 1.7
318.15 K | 1000.21 ± 2 | 1554.9 ± 1.7

Nc1ccccc1 [aniline] + CCOC(=O)C(C)O
[2], x2 = 0
Conditions | mass density [kg/m3] | speed of sound [m/s]
303.15 K | 1012.81 ± 2 | 1614 ± 1.7
308.15 K | 1008.91 ± 2 | 1595 ± 1.7
313.15 K | 1004.59 ± 2 | 1574.4 ± 1.7
318.15 K | 1000.21 ± 2 | 1554.9 ± 1.7

CNc1ccccc1 [N-methylaniline]
[1]
Conditions | mass density [kg/m3] | speed of sound [m/s]
303.15 K | 978.2 ± 2 | 1547 ± 1.7
308.15 K | 973.53 ± 2 | 1526.9 ± 1.7
313.15 K | 969.92 ± 2 | 1511 ± 1.7
318.15 K | 964.9 ± 2 | 1491.4 ± 1.7
